Assay results taken from patent US20240237643A1, “COMPOSITIONS WITH VIRUCIDAL AND/OR ANTIVIRAL ACTIVITY” (priority 2020, published 2024).

Key:
Type in all cases: cell-based
[1] = system: Coronavirus (MHV-3); test: Virucidal activity, quantitative suspension test DIN EN 14476
Description: (§1) Testing was conducted over a period of 1 to 10 minutes. Activity against the following viruses was determined: • Coronavirus (MHV-3) • Influenza virus (H1N1) • Herpes simplex virus (HV) • Human respiratory syncytial virus (HRSV)
(§2) In this context (+) means that more than 99.99% of all viruses were inactivated; this is equivalent to a reduction factor of 10,000.

[2] = system: Influenza virus (H1N1); test: as above
[3] = system: Herpes simplex virus (HV); test: as above
[4] = system: Human respiratory syncytial virus (HRSV); test: as above
[5] = system: all virus types (MHV-3, H1N1, HV, HRSV); test: Virucidal activity DIN EN 14476, summary over all virus types; conditions: concentration of 0.1 wt.-percent
Description: as §1, §2

[6] = 0.1 wt.-percent in water, 1 min
[7] = 0.1 wt.-percent in water, 10 min
[8] = 10 wt.-percent in water, 10 min

Row | SMILES | Virucidal activity MHV-3 [1, 6] | Virucidal activity MHV-3 [1, 7] | Virucidal activity MHV-3 ([1]; 1 wt.-percent in water, 1 min) | Virucidal activity MHV-3 ([1]; 1 wt.-percent in water, 10 min) | Virucidal activity MHV-3 ([1]; 10 wt.-percent in water, 1 min) | Virucidal activity MHV-3 [1, 8] | Virucidal activity H1N1 [2, 6] | Virucidal activity H1N1 [2, 7] | Virucidal activity H1N1 ([2]; 1 wt.-percent in water, 1 min) | Virucidal activity H1N1 ([2]; 1 wt.-percent in water, 10 min) | Virucidal activity H1N1 ([2]; 10 wt.-percent in water, 1 min) | Virucidal activity H1N1 [2, 8] | Virucidal activity HV [3, 6] | Virucidal activity HV [3, 7] | Virucidal activity HV ([3]; 1 wt.-percent in water, 1 min) | Virucidal activity HV ([3]; 1 wt.-percent in water, 10 min) | Virucidal activity HV ([3]; 10 wt.-percent in water, 1 min) | Virucidal activity HV [3, 8] | Virucidal activity HRSV [4, 6] | Virucidal activity HRSV [4, 7] | further results
1 | CC(C)=CCCC(C)=CCCC(C)=CCO [3,7,11-trimethyl-2,6,10-dodecantrien-1-ol] | (+) ((+) means that more than 99.99% of all viruses were inactivated; this is equivalent to a reduction factor of 10,000) | (+) ((+) means that more than 99.99% of all viruses were inactivated; this is equivalent to a reduction factor of 10,000) | (+) ((+) means that more than 99.99% of all viruses were inactivated; this is equivalent to a reduction factor of 10,000) | (+) ((+) means that more than 99.99% of all viruses were inactivated; this is equivalent to a reduction factor of 10,000) | (+) ((+) means that more than 99.99% of all viruses were inactivated; this is equivalent to a reduction factor of 10,000) | (+) ((+) means that more than 99.99% of all viruses were inactivated; this is equivalent to a reduction factor of 10,000) | (+) ((+) means that more than 99.99% of all viruses were inactivated; this is equivalent to a reduction factor of 10,000) | (+) ((+) means that more than 99.99% of all viruses were inactivated; this is equivalent to a reduction factor of 10,000) | (+) ((+) means that more than 99.99% of all viruses were inactivated; this is equivalent to a reduction factor of 10,000) | (+) ((+) means that more than 99.99% of all viruses were inactivated; this is equivalent to a reduction factor of 10,000) | (+) ((+) means that more than 99.99% of all viruses were inactivated; this is equivalent to a reduction factor of 10,000) | (+) ((+) means that more than 99.99% of all viruses were inactivated; this is equivalent to a reduction factor of 10,000) | (+) ((+) means that more than 99.99% of all viruses were inactivated; this is equivalent to a reduction factor of 10,000) | (+) ((+) means that more than 99.99% of all viruses were inactivated; this is equivalent to a reduction factor of 10,000) | (+) ((+) means that more than 99.99% of all viruses were inactivated; this is equivalent to a reduction factor of 10,000) | (+) ((+) means that more than 99.99% of all viruses were inactivated; this is equivalent to a reduction factor of 10,000) | (+) ((+) means that more than 99.99% of all viruses were inactivated; this is equivalent to a reduction factor of 10,000) | (+) ((+) means that more than 99.99% of all viruses were inactivated; this is equivalent to a reduction factor of 10,000) | (+) ((+) means that more than 99.99% of all viruses were inactivated; this is equivalent to a reduction factor of 10,000) | (+) ((+) means that more than 99.99% of all viruses were inactivated; this is equivalent to a reduction factor of 10,000) | Virucidal activity HRSV ([4]; 1 wt.-percent in water, 1 min): (+) ((+) means that more than 99.99% of all viruses were inactivated; this is equivalent to a reduction factor of 10,000); Virucidal activity HRSV ([4]; 1 wt.-percent in water, 10 min): (+) ((+) means that more than 99.99% of all viruses were inactivated; this is equivalent to a reduction factor of 10,000); Virucidal activity HRSV ([4]; 10 wt.-percent in water, 1 min): (+) ((+) means that more than 99.99% of all viruses were inactivated; this is equivalent to a reduction factor of 10,000); Virucidal activity HRSV [4, 8]: (+) ((+) means that more than 99.99% of all viruses were inactivated; this is equivalent to a reduction factor of 10,000); reduction factor [5]: 10,000
2 | Cc1cc(O)ccc1C(C)C [4-isopropyl-3-methylphenol] | (+) ((+) means that more than 99.99% of all viruses were inactivated; this is equivalent to a reduction factor of 10,000) | (+) ((+) means that more than 99.99% of all viruses were inactivated; this is equivalent to a reduction factor of 10,000) | (+) ((+) means that more than 99.99% of all viruses were inactivated; this is equivalent to a reduction factor of 10,000) | (+) ((+) means that more than 99.99% of all viruses were inactivated; this is equivalent to a reduction factor of 10,000) | (+) ((+) means that more than 99.99% of all viruses were inactivated; this is equivalent to a reduction factor of 10,000) | (+) ((+) means that more than 99.99% of all viruses were inactivated; this is equivalent to a reduction factor of 10,000) | (+) ((+) means that more than 99.99% of all viruses were inactivated; this is equivalent to a reduction factor of 10,000) | (+) ((+) means that more than 99.99% of all viruses were inactivated; this is equivalent to a reduction factor of 10,000) | (+) ((+) means that more than 99.99% of all viruses were inactivated; this is equivalent to a reduction factor of 10,000) | (+) ((+) means that more than 99.99% of all viruses were inactivated; this is equivalent to a reduction factor of 10,000) | (+) ((+) means that more than 99.99% of all viruses were inactivated; this is equivalent to a reduction factor of 10,000) | (+) ((+) means that more than 99.99% of all viruses were inactivated; this is equivalent to a reduction factor of 10,000) | (+) ((+) means that more than 99.99% of all viruses were inactivated; this is equivalent to a reduction factor of 10,000) | (+) ((+) means that more than 99.99% of all viruses were inactivated; this is equivalent to a reduction factor of 10,000) | (+) ((+) means that more than 99.99% of all viruses were inactivated; this is equivalent to a reduction factor of 10,000) | (+) ((+) means that more than 99.99% of all viruses were inactivated; this is equivalent to a reduction factor of 10,000) | (+) ((+) means that more than 99.99% of all viruses were inactivated; this is equivalent to a reduction factor of 10,000) | (+) ((+) means that more than 99.99% of all viruses were inactivated; this is equivalent to a reduction factor of 10,000) | (+) ((+) means that more than 99.99% of all viruses were inactivated; this is equivalent to a reduction factor of 10,000) | (+) ((+) means that more than 99.99% of all viruses were inactivated; this is equivalent to a reduction factor of 10,000) | Virucidal activity HRSV ([4]; 1 wt.-percent in water, 1 min): (+) ((+) means that more than 99.99% of all viruses were inactivated; this is equivalent to a reduction factor of 10,000); Virucidal activity HRSV ([4]; 1 wt.-percent in water, 10 min): (+) ((+) means that more than 99.99% of all viruses were inactivated; this is equivalent to a reduction factor of 10,000); Virucidal activity HRSV ([4]; 10 wt.-percent in water, 1 min): (+) ((+) means that more than 99.99% of all viruses were inactivated; this is equivalent to a reduction factor of 10,000); Virucidal activity HRSV [4, 8]: (+) ((+) means that more than 99.99% of all viruses were inactivated; this is equivalent to a reduction factor of 10,000)
